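Interpolation was linear, between the two tested concentrations surrounding the appropriate level; five concentrations were tested over 48 hours in 96-well plates. GI50: concentration for 50% inhibition of growth.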 Active and inactive are the calls of the source. Rule as the data show it: active = GI50 up to about 1.1 µM and inactive = higher.
Key:
Experiment in all cases: NCI anticancer screen, dose series, 48 h
IGROV-1 = tested on: IGROV-1
OVCAR-3 = tested on: OVCAR-3
SNB-75 = tested on: SNB-75
SN12C = tested on: SN12C
UACC-62 = tested on: UACC-62
ACHN = tested on: ACHN
SR = tested on: SR
HT-29 = tested on: HT-29
SF-295 = tested on: SF-295
SNB-19 = tested on: SNB-19
UACC-257 = tested on: UACC-257
OVCAR-5 = tested on: OVCAR-5
NCI-H522 = tested on: NCI-H522
MCF7 = tested on: MCF7
U-251 = tested on: U-251
SK-MEL-28 = tested on: SK-MEL-28
NCI/ADR-RES = tested on: NCI/ADR-RES
HCT-15 = tested on: HCT-15
PC-3 = tested on: PC-3
HOP-62 = tested on: HOP-62
NCI-H23 = tested on: NCI-H23
BT-549 = tested on: BT-549
EKVX = tested on: EKVX
TK-10 = tested on: TK-10
UO-31 = tested on: UO-31
RPMI-8226 = tested on: RPMI-8226
HCT-116 = tested on: HCT-116
DU-145 = tested on: DU-145
M14 = tested on: M14
SK-OV-3 = tested on: SK-OV-3
786-0 = tested on: 786-0
T47D = tested on: T47D
MDA-N = tested on: MDA-N
A549 = tested on: A549
OVCAR-8 = tested on: OVCAR-8
Malme-3M = tested on: Malme-3M
NCI-H460 = tested on: NCI-H460
SW-620 = tested on: SW-620
NCI-H226 = tested on: NCI-H226
MDA-MB-435 = tested on: MDA-MB-435
OVCAR-4 = tested on: OVCAR-4
HOP-92 = tested on: HOP-92
MOLT-4 = tested on: MOLT-4
SK-MEL-2 = tested on: SK-MEL-2
SK-MEL-5 = tested on: SK-MEL-5
RXF 393 = tested on: RXF 393
SF-268 = tested on: SF-268
COLO 205 = tested on: COLO 205
MDA-MB-231 = tested on: MDA-MB-231
LOX IMVI = tested on: LOX IMVI
Hs-578T = tested on: Hs-578T
CAKI-1 = tested on: CAKI-1
HL-60 = tested on: HL-60
HCC 2998 = tested on: HCC 2998
KM12 = tested on: KM12
K562 = tested on: K562
CCRF-CEM = tested on: CCRF-CEM
SF-539 = tested on: SF-539

NC1OC(COC(=O)c2ccccc2)C(O)C(OC(=O)c2ccccc2)C1OC(=O)c1ccccc1 (stereo not given)
GI50 (IGROV-1): 16.9 µM (inactive)
GI50 (OVCAR-3): 25.2 µM (inactive)
GI50 (SNB-75): 18.6 µM (inactive)
GI50 (SN12C): 24.3 µM (inactive)
GI50 (UACC-62): 14.1 µM (inactive)
GI50 (ACHN): 19.3 µM (inactive)
GI50 (SR): > 10 µM (inactive)
GI50 (HT-29): 17.3 µM (inactive)
GI50 (SF-295): 17.2 µM (inactive)
GI50 (SNB-19): 33 µM (inactive)
GI50 (UACC-257): 18.1 µM (inactive)
GI50 (OVCAR-5): 24.3 µM (inactive)
GI50 (NCI-H522): 23.9 µM (inactive)
GI50 (MCF7): 23.9 µM (inactive)
GI50 (U-251): 17.7 µM (inactive)
GI50 (SK-MEL-28): 20.2 µM (inactive)
GI50 (NCI/ADR-RES): 33.3 µM (inactive)
GI50 (HCT-15): 32.7 µM
GI50 (PC-3): 19.7 µM (inactive)
GI50 (HOP-62): 22.7 µM (inactive)
GI50 (NCI-H23): 25.4 µM (inactive)
GI50 (BT-549): 20.7 µM (inactive)
GI50 (EKVX): 21.3 µM (inactive)
GI50 (TK-10): 61.9 µM (inactive)
GI50 (UO-31): 33.5 µM (inactive)
GI50 (RPMI-8226): > 100 µM (inactive)
GI50 (HCT-116): 18.8 µM (inactive)
GI50 (DU-145): 40.1 µM (inactive)
GI50 (M14): 24.3 µM (inactive)
GI50 (SK-OV-3): 41.3 µM (inactive)
GI50 (786-0): 15.5 µM (inactive)
GI50 (T47D): 35.5 µM (inactive)
GI50 (MDA-N): 22.3 µM (inactive)
GI50 (A549): 19.1 µM (inactive)
GI50 (OVCAR-8): 17.9 µM (inactive)
GI50 (Malme-3M): 16.7 µM (inactive)
GI50 (NCI-H460): 11.4 µM (inactive)
GI50 (SW-620): 19 µM (inactive)
GI50 (NCI-H226): 20.8 µM (inactive)
GI50 (MDA-MB-435): 21.7 µM (inactive)
GI50 (OVCAR-4): 35.5 µM (inactive)
GI50 (HOP-92): 35.2 µM (inactive)
GI50 (MOLT-4): 14.7 µM (inactive)
GI50 (SK-MEL-2): 29.9 µM (inactive)
GI50 (SK-MEL-5): 14.4 µM (inactive)
GI50 (RXF 393): 16.3 µM (inactive)
GI50 (SF-268): 22.6 µM (inactive)
GI50 (COLO 205): 22.1 µM (inactive)
GI50 (MDA-MB-231): 18.7 µM (inactive)
GI50 (LOX IMVI): 14.4 µM (inactive)
GI50 (Hs-578T): 15.1 µM (inactive)

CC(ON(C(c1ccccc1)C(C)C)C(C)(C)C)c1ccccc1 (stereo not given)
GI50 (IGROV-1): 23.1 µM (inactive)
GI50 (OVCAR-3): 16.4 µM (inactive)
GI50 (SNB-75): 25.1 µM (inactive)
GI50 (SN12C): 16.8 µM (inactive)
GI50 (UACC-62): 15.9 µM (inactive)
GI50 (ACHN): 15.8 µM (inactive)
GI50 (SR): 23 µM (inactive)
GI50 (HT-29): 18.9 µM (inactive)
GI50 (SF-295): 14.9 µM (inactive)
GI50 (SNB-19): 18.5 µM (inactive)
GI50 (UACC-257): 17.2 µM (inactive)
GI50 (CAKI-1): 21.7 µM (inactive)
GI50 (OVCAR-5): 16 µM (inactive)
GI50 (NCI-H522): 26.5 µM (inactive)
GI50 (MCF7): 16.4 µM (inactive)
GI50 (U-251): 17 µM (inactive)
GI50 (SK-MEL-28): 20.4 µM (inactive)
GI50 (HL-60): 18.7 µM (inactive)
GI50 (NCI/ADR-RES): 23.1 µM (inactive)
GI50 (HCT-15): 61.8 µM
GI50 (HCC 2998): 17.3 µM (inactive)
GI50 (PC-3): 33.8 µM (inactive)
GI50 (HOP-62): 19.4 µM (inactive)
GI50 (NCI-H23): 18.7 µM (inactive)
GI50 (BT-549): 12.6 µM (inactive)
GI50 (EKVX): 15.4 µM (inactive)
GI50 (KM12): 18.4 µM (inactive)
GI50 (TK-10): 22.4 µM (inactive)
GI50 (UO-31): 24.5 µM (inactive)
GI50 (RPMI-8226): 29.5 µM (inactive)
GI50 (HCT-116): 14.7 µM (inactive)
GI50 (DU-145): 18.5 µM (inactive)
GI50 (M14): 22.7 µM (inactive)
GI50 (SK-OV-3): 39.3 µM (inactive)
GI50 (K562): 18.9 µM (inactive)
GI50 (786-0): 16.4 µM (inactive)
GI50 (T47D): 25.9 µM (inactive)
GI50 (MDA-N): 25.8 µM (inactive)
GI50 (A549): 29.6 µM (inactive)
GI50 (OVCAR-8): 21.8 µM (inactive)
GI50 (Malme-3M): 38.3 µM (inactive)
GI50 (NCI-H460): 18.1 µM (inactive)
GI50 (CCRF-CEM): 19.1 µM (inactive)
GI50 (SW-620): 16.2 µM (inactive)
GI50 (NCI-H226): 19 µM (inactive)
GI50 (MDA-MB-435): 25.5 µM (inactive)
GI50 (OVCAR-4): 27 µM (inactive)
GI50 (HOP-92): 20.6 µM (inactive)
GI50 (SF-539): 21.6 µM (inactive)
GI50 (MOLT-4): 15 µM (inactive)
GI50 (SK-MEL-2): 18.4 µM (inactive)
GI50 (SK-MEL-5): 14.4 µM (inactive)
GI50 (RXF 393): 16.3 µM (inactive)
GI50 (SF-268): 24.4 µM (inactive)
GI50 (COLO 205): 17.3 µM (inactive)
GI50 (MDA-MB-231): 21.1 µM (inactive)
GI50 (LOX IMVI): 18.4 µM (inactive)
GI50 (Hs-578T): 29 µM (inactive)

Cc1ccc(C2=Nc3c(N)nc(N)nc3NC(c3ccccc3)C2)cc1 (stereo not given)
GI50 (IGROV-1): 5.36 µM (inactive)
GI50 (OVCAR-3): 11.5 µM (inactive)
GI50 (SNB-75): 11.2 µM (inactive)
GI50 (SN12C): 12.2 µM (inactive)
GI50 (UACC-62): 8.15 µM (inactive)
GI50 (ACHN): 15.4 µM (inactive)
GI50 (SR): 3.56 µM (inactive)
GI50 (HT-29): 4.05 µM (inactive)
GI50 (SNB-19): 14.2 µM (inactive)
GI50 (UACC-257): 13.5 µM (inactive)
GI50 (CAKI-1): 14 µM (inactive)
GI50 (OVCAR-5): 18 µM (inactive)
GI50 (NCI-H522): 3.13 µM (inactive)
GI50 (MCF7): 8.77 µM (inactive)
GI50 (U-251): 12.8 µM (inactive)
GI50 (SK-MEL-28): 14.4 µM (inactive)
GI50 (NCI/ADR-RES): 3.97 µM (inactive)
GI50 (HCT-15): 3.1 µM
GI50 (HCC 2998): 4.44 µM (inactive)
GI50 (PC-3): 10.4 µM (inactive)
GI50 (HOP-62): 9.55 µM (inactive)
GI50 (NCI-H23): 11.1 µM (inactive)
GI50 (BT-549): 7.23 µM (inactive)
GI50 (EKVX): 12.4 µM (inactive)
GI50 (TK-10): 16.9 µM (inactive)
GI50 (UO-31): 11.5 µM (inactive)
GI50 (RPMI-8226): 4.84 µM (inactive)
GI50 (HCT-116): 4.11 µM (inactive)
GI50 (DU-145): 14.7 µM (inactive)
GI50 (M14): 6.4 µM (inactive)
GI50 (SK-OV-3): 12.5 µM (inactive)
GI50 (K562): 3.51 µM (inactive)
GI50 (786-0): 13.2 µM (inactive)
GI50 (T47D): 13.1 µM (inactive)
GI50 (MDA-N): 2.12 µM (inactive)
GI50 (A549): 10.2 µM (inactive)
GI50 (OVCAR-8): 13.1 µM (inactive)
GI50 (Malme-3M): 9.66 µM (inactive)
GI50 (CCRF-CEM): 7.83 µM (inactive)
GI50 (SW-620): 4.02 µM (inactive)
GI50 (NCI-H226): 14.4 µM (inactive)
GI50 (MDA-MB-435): 1.92 µM (inactive)
GI50 (OVCAR-4): 14.2 µM (inactive)
GI50 (HOP-92): 11.7 µM (inactive)
GI50 (SF-539): 12 µM (inactive)
GI50 (MOLT-4): 7.43 µM (inactive)
GI50 (RXF 393): 7.36 µM (inactive)
GI50 (SF-268): 14.3 µM (inactive)
GI50 (MDA-MB-231): 11.8 µM (inactive)
GI50 (LOX IMVI): 10.1 µM (inactive)
GI50 (Hs-578T): 14 µM (inactive)

From ChEMBL document CHEMBL1201862, “PubChem BioAssay data set” (2004)
